The values below are quoted from earlier work in patent US20210393932A1, “DERMAL PATCHES AND GLASS SWABS FOR APPLICATION OF TOPICAL IMMUNOSENSITIZERS” (Squarex, LLC, priority 2020, published 2021).

In this data set the test system is common warts and alopecia areata. The conditions noted are these: solutions of 0.05% to 2.0% weight/volume, vehicle almost always acetone, applied repeatedly (Buckley et al., Lee et al.); cited from earlier work.

For `O=c1c(-c2ccccc2)c1-c1ccccc1` [diphenylcyclopropenone], the “treatment of common warts and alopecia areata” value is reported as “used successfully”.

On to `O=[N+]([O-])c1ccc(Cl)c([N+](=O)[O-])c1` [DNCB, 1-chloro-2,4-dinitrobenzene], for which the “treatment of common warts and alopecia areata” value is given as “used successfully”.
